PubChem BioAssay (NCI)
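Compound exposure: 48 hours, 5 concentrations, 96-well plates. At the TGI there is no net growth.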

What was measured:
Test in all cases: growth of human tumour cells (NCI), 48 h
RPMI-8226 leukemia = system: RPMI-8226 leukemia
TK-10 renal = system: TK-10 renal
SR leukemia = system: SR leukemia
SN12C renal = system: SN12C renal
CCRF-CEM leukemia = system: CCRF-CEM leukemia
A498 renal = system: A498 renal
SK-OV-3 ovarian = system: SK-OV-3 ovarian
HL-60(TB) leukemia = system: HL-60(TB) leukemia
SF-539 CNS = system: SF-539 CNS
MALME-3M melanoma = system: MALME-3M melanoma
OVCAR-5 ovarian = system: OVCAR-5 ovarian

Structure (SMILES)	TGI (RPMI-8226 leukemia) [µM]	TGI (TK-10 renal) [µM]	TGI (SR leukemia) [µM]	TGI (SN12C renal) [µM]	TGI (CCRF-CEM leukemia) [µM]	TGI (A498 renal) [µM]	TGI (SK-OV-3 ovarian) [µM]	TGI (HL-60(TB) leukemia) [µM]	TGI (SF-539 CNS) [µM]	TGI (MALME-3M melanoma) [µM]	TGI (OVCAR-5 ovarian) [µM]
Cc1nc2cc3[nH]c4ccccc4c(=O)c3cc2s1	> 100	> 100	> 100	> 100	> 100	> 100	> 100	> 100	> 100	> 100	> 100
CCOP(=O)(OCC)C(Cc1cn(S(=O)(=O)c2ccc(C)cc2)cn1)C(=O)O (configuration not stated)	> 100	> 100	> 100	> 100	> 100	> 100	> 100	> 100	> 100	> 100	> 100
COc1cc2c(cc1OC)C/C(=N\O)c1cc(OC)c(OC)cc1/C=C\2	66.9	> 72.6	> 50.8	> 100	> 100	> 100	> 85.3	19.5	18	9.9	> 55.3
COc1cc([C@@H]2c3cc4c(cc3[C@H](OC3OC5COC(C(C)C)OC5C(O)C3O)C3COC(=O)[C@@H]32)OCO4)cc(OC)c1OC (some centres not stated)	48.8	> 100	66.5	> 100	> 29.6	9.96	> 100	> 25.8	> 25.9	30.5	> 73.8
COC(=O)c1cc(NC(=O)Cn2c3ccccc3c3ccccc32)cn1C	75	> 100	> 100	> 100	> 100	> 100	89.2	> 100	63.1	> 100	> 100
CC(C)(C)c1ccc(OCCOc2ccc(C(C)(C)C)cc2NC=O)c(NC=O)c1	13.6	> 100	> 48	30.8	> 45.3	40	> 100	> 100	21.6	24.8	75.5
COC(=O)[C@@]1(Cc2ccc(OC(C)=O)cc2)Cc2cc3ccccc3n2N1	> 100	> 100	70.6	> 100	> 100	87.3	> 100	80.8	> 100	> 100	> 100
